Measured values from PubChem BioAssay AID2060491 (Molecular Pharmacology Branch, DTP, NCI, 2025).

System: 857933-349-R-J2-PDC complex spheroids, viability
Assay: Anticancer human tumor 857933-349-R-J2-PDC patient-derived colon adenocarcinoma cell line growth inhibition [GQUAD]
Conditions: for IC50: curve of first compound; for viability, T/C: stronger effect = lower value
How it was run: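 Tumor cells were grown as complex spheroids with HUVEC endothelial cells and mesenchymal stem cells as stroma. G-quadruplex stabilizers were combined with targeted agents over half-log dilutions from near the clinical Cmax, or from 10 microM.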

[1] = second compound 0.0316 µM, first compound 0.0316 µM
[2] = second compound 0.0316 µM, first compound 0.1 µM
[3] = second compound 0.0316 µM, first compound 0.316 µM
[4] = second compound 0.0316 µM, first compound 1 µM
[5] = second compound 0.0316 µM, first compound 3.16 µM
[6] = second compound 0.0316 µM, first compound 10 µM
[7] = second compound 0.1 µM, first compound 0.0316 µM
[8] = second compound 0.1 µM, first compound 0.1 µM
[9] = second compound 0.1 µM, first compound 0.316 µM
[10] = second compound 0.1 µM, first compound 1 µM
[11] = second compound 0.1 µM, first compound 3.16 µM
[12] = second compound 0.1 µM, first compound 10 µM
[13] = second compound 0.316 µM, first compound 0.0316 µM
[14] = second compound 0.316 µM, first compound 0.1 µM
[15] = second compound 0.316 µM, first compound 0.316 µM
[16] = second compound 0.316 µM, first compound 1 µM
[17] = second compound 0.316 µM, first compound 3.16 µM
[18] = second compound 0.316 µM, first compound 10 µM
[19] = second compound 1 µM, first compound 0.0316 µM
[20] = second compound 1 µM, first compound 0.1 µM
[21] = second compound 1 µM, first compound 0.316 µM
[22] = second compound 1 µM, first compound 1 µM
[23] = second compound 1 µM, first compound 3.16 µM
[24] = second compound 1 µM, first compound 10 µM
[25] = second compound 3.16 µM, first compound 0.0316 µM
[26] = second compound 3.16 µM, first compound 0.1 µM
[27] = second compound 3.16 µM, first compound 0.316 µM
[28] = second compound 3.16 µM, first compound 1 µM
[29] = second compound 3.16 µM, first compound 3.16 µM
[30] = second compound 3.16 µM, first compound 10 µM
[31] = second compound 10 µM, first compound 0.0316 µM
[32] = second compound 10 µM, first compound 0.1 µM
[33] = second compound 10 µM, first compound 0.316 µM
[34] = second compound 10 µM, first compound 1 µM
[35] = second compound 10 µM, first compound 3.16 µM
[36] = second compound 10 µM, first compound 10 µM
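Further: spheroids exposed to compounds for one week before readout.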
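Wherever viability, T/C is given: percent viability relative to vehicle DMSO wells taken as 100%.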

Compound: C=CC(=O)N1CCN(c2nc(=O)n(-c3c(C)ccnc3C(C)C)c3nc(-c4c(O)cccc4F)c(F)cc23)C(C)C1 (stereo unspecified) + Cc1[nH]c2ccc(F)cc2c1-c1nc2c3cccnc3c3ncccc3c2[nH]1
- IC50 (second compound 0.0316 µM): > 10000 nM
- IC50 (second compound 0.1 µM): > 10000 nM
- IC50 (second compound 0.316 µM): > 10000 nM
- IC50 (second compound 1 µM): > 10000 nM
- IC50 (second compound 3.16 µM): > 10000 nM
- IC50 (second compound 10 µM): > 10000 nM
- viability, T/C [1]: 102%
- viability, T/C [2]: 106%
- viability, T/C [3]: 96.7%
- viability, T/C [4]: 102%
- viability, T/C [5]: 109%
- viability, T/C [6]: 86%
- viability, T/C [7]: 98.9%
- viability, T/C [8]: 101%
- viability, T/C [9]: 96.5%
- viability, T/C [10]: 104%
- viability, T/C [11]: 103%
- viability, T/C [12]: 93.4%
- viability, T/C [13]: 95.1%
- viability, T/C [14]: 100%
- viability, T/C [15]: 101%
- viability, T/C [16]: 97.4%
- viability, T/C [17]: 104%
- viability, T/C [18]: 89%
- viability, T/C [19]: 101%
- viability, T/C [20]: 106%
- viability, T/C [21]: 96.3%
- viability, T/C [22]: 104%
- viability, T/C [23]: 108%
- viability, T/C [24]: 89.2%
- viability, T/C [25]: 99%
- viability, T/C [26]: 110%
- viability, T/C [27]: 91.3%
- viability, T/C [28]: 99%
- viability, T/C [29]: 104%
- viability, T/C [30]: 95.3%
- viability, T/C [31]: 102%
- viability, T/C [32]: 98.2%
- viability, T/C [33]: 88.2%
- viability, T/C [34]: 92.7%
- viability, T/C [35]: 99%
- viability, T/C [36]: 84.7%

Compound: CC(=O)O[C@H]1C(=O)[C@@]2(C)[C@H]([C@H](OC(=O)c3ccccc3)[C@]3(O)C[C@H](OC(=O)[C@H](O)[C@@H](NC(=O)c4ccccc4)c4ccccc4)C(C)=C1C3(C)C)[C@]1(OC(C)=O)CO[C@@H]1C[C@@H]2O + Cc1[nH]c2ccc(F)cc2c1-c1nc2c3cccnc3c3ncccc3c2[nH]1
- IC50 (second compound 0.0316 µM): < 31.6 nM
- IC50 (second compound 0.1 µM): < 31.6 nM
- IC50 (second compound 0.316 µM): 41.3 nM
- IC50 (second compound 1 µM): 32.9 nM
- IC50 (second compound 3.16 µM): 39.5 nM
- IC50 (second compound 10 µM): < 31.6 nM
- viability, T/C [1]: 43.9%
- viability, T/C [2]: 16.9%
- viability, T/C [3]: 11.6%
- viability, T/C [4]: 11.4%
- viability, T/C [5]: 11.1%
- viability, T/C [6]: 12.6%
- viability, T/C [7]: 44.9%
- viability, T/C [8]: 17.1%
- viability, T/C [9]: 11.4%
- viability, T/C [10]: 11.8%
- viability, T/C [11]: 12.7%
- viability, T/C [12]: 13.1%
- viability, T/C [13]: 59.8%
- viability, T/C [14]: 17.8%
- viability, T/C [15]: 10.8%
- viability, T/C [16]: 11%
- viability, T/C [17]: 12.8%
- viability, T/C [18]: 13.5%
- viability, T/C [19]: 51.2%
- viability, T/C [20]: 17.7%
- viability, T/C [21]: 11.8%
- viability, T/C [22]: 12.3%
- viability, T/C [23]: 14.2%
- viability, T/C [24]: 12.4%
- viability, T/C [25]: 58%
- viability, T/C [26]: 16.6%
- viability, T/C [27]: 14.5%
- viability, T/C [28]: 12.8%
- viability, T/C [29]: 15%
- viability, T/C [30]: 16.4%
- viability, T/C [31]: 43.2%
- viability, T/C [32]: 17.1%
- viability, T/C [33]: 14%
- viability, T/C [34]: 13.3%
- viability, T/C [35]: 16.7%
- viability, T/C [36]: 16.2%

Compound: CCc1c2c(nc3ccc(O)cc13)-c1cc3c(c(=O)n1C2)COC(=O)[C@]3(O)CC + Cc1[nH]c2ccc(F)cc2c1-c1nc2c3cccnc3c3ncccc3c2[nH]1
- IC50 (second compound 0.0316 µM): 8.64 nM
- IC50 (second compound 0.1 µM): 5.42 nM
- IC50 (second compound 0.316 µM): 9.75 nM
- IC50 (second compound 1 µM): 8.5 nM
- IC50 (second compound 3.16 µM): 9.46 nM
- IC50 (second compound 10 µM): 8.53 nM
- viability, T/C (second compound 0.0316 µM, first compound 0.000999 µM): 79.3%
- viability, T/C (second compound 0.0316 µM, first compound 0.00316 µM): 63%
- viability, T/C (second compound 0.0316 µM, first compound 0.00999 µM): 51.5%
- viability, T/C [1]: 24.8%
- viability, T/C (second compound 0.0316 µM, first compound 0.0999 µM): 14.7%
- viability, T/C [3]: 12.2%
- viability, T/C (second compound 0.1 µM, first compound 0.000999 µM): 80.2%
- viability, T/C (second compound 0.1 µM, first compound 0.00316 µM): 54.5%
- viability, T/C (second compound 0.1 µM, first compound 0.00999 µM): 45.5%
- viability, T/C [7]: 26.5%
- viability, T/C (second compound 0.1 µM, first compound 0.0999 µM): 15.3%
- viability, T/C [9]: 11.1%
- viability, T/C (second compound 0.316 µM, first compound 0.000999 µM): 73.5%
- viability, T/C (second compound 0.316 µM, first compound 0.00316 µM): 72.6%
- viability, T/C (second compound 0.316 µM, first compound 0.00999 µM): 47.9%
- viability, T/C [13]: 25%
- viability, T/C (second compound 0.316 µM, first compound 0.0999 µM): 15.4%
- viability, T/C [15]: 11.4%
- viability, T/C (second compound 1 µM, first compound 0.000999 µM): 74.8%
- viability, T/C (second compound 1 µM, first compound 0.00316 µM): 63.2%
- viability, T/C (second compound 1 µM, first compound 0.00999 µM): 49.8%
- viability, T/C [19]: 24.4%
- viability, T/C (second compound 1 µM, first compound 0.0999 µM): 16.6%
- viability, T/C [21]: 14.7%
- viability, T/C (second compound 3.16 µM, first compound 0.000999 µM): 80.5%
- viability, T/C (second compound 3.16 µM, first compound 0.00316 µM): 60.1%
- viability, T/C (second compound 3.16 µM, first compound 0.00999 µM): 55.9%
- viability, T/C [25]: 27.4%
- viability, T/C (second compound 3.16 µM, first compound 0.0999 µM): 15.7%
- viability, T/C [27]: 13%
- viability, T/C (second compound 10 µM, first compound 0.000999 µM): 80.7%
- viability, T/C (second compound 10 µM, first compound 0.00316 µM): 54.5%
- viability, T/C (second compound 10 µM, first compound 0.00999 µM): 59.2%
- viability, T/C [31]: 28.1%
- viability, T/C (second compound 10 µM, first compound 0.0999 µM): 18.7%
- viability, T/C [33]: 14.6%
